Values of other authors as cited in article PMC7523345 (Investigational new drugs, 2018).

What was measured:
[1] = tested on: TNBC cells with NOTCH2 rearrangement; details: cited from earlier work
[2] = tested on: TNBC cells with NOTCH1 re-arrangements; details: in vitro and in vivo; cited from earlier work

In the case of `O=S1(=O)N[C@@]2(CN1CC(F)(F)F)[C@@H]1CC[C@H]2Cc2ccc(/C=C/CN3CCC(C(F)(F)F)CC3)cc2C1` [MRK-003], the “Sensitivity of TNBC cells with NOTCH2 rearrangement” value [1] is listed as “resistant” and the “Sensitivity of TNBC cells with NOTCH1 re-arrangements” value [2] is listed as “sensitive”.
